From patent US10752587B2, “Homobispiperidinyl derivatives as liver X receptor beta agonists, compositions and their use” (Merck Sharp & Dohme Corp., priority 2015, dated 2020) come the findings set out here.

Usually EC50 stands for the concentration needed to bring the measured effect to its halfway point.

Molecules are shown by their SMILES. pEC50: −log10 of the molar value. Read-outs that look alike come from different tables or passages of the source.

In assay [1] the target is T1, glutathione-S-transferase (GST) tagged LXRalpha LBD (ligand binding domain) (Homo sapiens, UniProt Q13133).
T1 construct: purchased Invitrogen pv4655
T1 sequence (Q13133 209-447 limits assumed): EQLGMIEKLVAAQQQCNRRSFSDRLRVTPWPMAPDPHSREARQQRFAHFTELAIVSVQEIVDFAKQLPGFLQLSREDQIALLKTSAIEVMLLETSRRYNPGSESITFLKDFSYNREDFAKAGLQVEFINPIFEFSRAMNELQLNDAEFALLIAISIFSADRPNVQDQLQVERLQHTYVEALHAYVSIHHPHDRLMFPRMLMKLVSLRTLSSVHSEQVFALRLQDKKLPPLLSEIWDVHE
Nature of the assay: LanthaScreen TR-FRET Liver X Receptor Coactivator Assay, co-activator recruitment to LXRalpha LBD. The class given is biochemical. The following applies: for Emax: read-out: LXR alpha Activity @ max dose (%); for pEC50 / LXR alpha IP (nM): potency (Inflection Point, IP), co-activator recruitment to LXRalpha LBD, in relation to T0901317; for pEC50: read-out: LXR alpha IP. Here is the method: (§1) Potency (Inflection Point, IP) and efficacy (Emax) are evaluated via compound-induced co-activator recruitment to glutathione-S-transferase (GST) tagged LXRbeta and LXRalpha LBD (ligand binding domain) proteins in relation to reference dual agonist compound T0901317 (N-(2,2,2-Trifluoroethyl)-N-[4-[2,2,2-trifluoro-1-hydroxy-1-(trifluoromethyl)ethyl] phenyl] benzenesulfonamide) using the LanthaScreen™ TR-FRET Liver X Receptor Coactivator Assays according to manufacturer's instructions (Invitrogen catalog number pv4658.pps and pv4655). While running the LanthaScreen™ TR-FRET Liver X Receptor Coactivator Assay, LXR alpha-LBD or LXR beta-LBD was added to ligand test compounds followed by addition of a mixture of a fluorescein-labelled coactivator peptide and terbium-conjugated anti-GST antibody. After an incubation period at room temperature, TR-FRET (time-resolved fluorescence resonance energy transfer) was measured using a filter-based instrument capable of TR-FRET, e.g. PerkinElmer Envision.
On the technique in general: Time-resolved FRET reads energy transfer from a long-lived donor to a nearby acceptor.

In assay [2] the target is T2, glutathione-S-transferase (GST) tagged LXRbeta LBD (ligand binding domain) (Homo sapiens, UniProt P55055).
T2 construct: purchased Invitrogen pv4658.pps
T2 sequence (P55055 222-460 limits assumed): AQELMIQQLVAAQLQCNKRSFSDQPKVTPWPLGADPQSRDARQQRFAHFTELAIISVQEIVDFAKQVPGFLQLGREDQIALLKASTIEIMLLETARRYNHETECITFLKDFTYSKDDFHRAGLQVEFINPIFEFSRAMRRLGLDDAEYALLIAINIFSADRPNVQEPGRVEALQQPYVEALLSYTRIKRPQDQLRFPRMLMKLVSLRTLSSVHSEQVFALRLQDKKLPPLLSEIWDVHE
Kind of assay: LanthaScreen TR-FRET Liver X Receptor Coactivator Assay, co-activator recruitment to LXRbeta LBD. The class given is biochemical. The following applies: for Emax: read-out: LXR beta Activity @ max dose (%); for pEC50 / EC50: potency (Inflection Point, IP), co-activator recruitment to LXRbeta LBD, in relation to T0901317; for pEC50: read-out: LXR beta IP; for EC50: LXR beta IP (nM). Here is the method:
as §1

Where [3] appears, read: efficacy at max dose, in relation to reference dual agonist T0901317.

`CN(C)C(=O)c1ccc(N2CCC(CC3(C)CCN(C(=O)[C@](O)(c4cccc(F)c4)C(F)(F)F)CC3)CC2)cc1Cl` [Example 2-57, 2-chloro-N,N-dimethyl-4-[4-({4-methyl-1-[(2R)-3,3,3-trifluoro-2-(3-fluorophenyl)-2-hydroxy-propanoyl]piperidin-4-yl}methyl)piperidin-1-yl]benzamide]: the Emax in assay [1] (setting [3]) came out at 27%; in assay [2] (setting [3]) it was 67%. Further, the pEC50 in assay [1] was 7.43; in assay [2] it was 8.30.

Consider `COc1cccc([C@@](O)(C(=O)N2CCC(CC3CCN(c4ccc(C(=O)N(C)C)c(Cl)c4)CC3)CC2)C(C)C)c1` [Example 2-115, 2-chloro-4-[4-({1-[(2R)-2-hydroxy-2-(3-methoxy-phenyl)-3-methyl-butanoyl]piperidin-4-yl}methyl)piperidin-1-yl]-N,N-dimethyl-benzamide], for which the results for the Emax in assay [1] (setting [3]) and in assay [2] (setting [3]) were 0% and 30%, respectively. For the same compound, in assay [1], the “LXR alpha IP (nM)” value was “NO IP”. Also, the pEC50 in assay [2] is 7.28.

Take `Cc1nc(N2CCC(CC3CCN(C(=O)C(O)(c4cccc(Cl)c4)C(F)(F)F)CC3)CC2)ccc1C(=O)N(C)C` (stereo not shown) [Example 7-7, 6-[4-({1-[2-(3-chlorophenyl)-3,3,3-trifluoro-2-hydroxypropanoyl]piperidin-4-yl}methyl)piperidin-1-yl]-N,N,2-trimethylpyridine-3-carboxamide]: in assay [1], the pEC50 is 6.29 and the Emax amounted to 24%. Moreover, in assay [2], the pEC50 is 7.44 and the Emax stood at 95%.

In the case of `CN(C)C(=O)c1ccc(N2CCC(CC3(C)CCN(C(=O)[C@](O)(c4cccc(Cl)c4)C(F)(F)F)CC3)CC2)nc1Cl` [Example 7-47, 2-chloro-6-[4-({1-[(2R)-2-(3-chlorophenyl)-3,3,3-trifluoro-2-hydroxypropanoyl]-4-methylpiperidin-4-yl}methyl)piperidin-1-yl]-N,N-dimethylpyridine-3-carboxamide], the results for the Emax in assay [1] (setting [3]) and in assay [2] (setting [3]) were 22% and 66%, respectively. Also, the values for the pEC50 in assay [1] and in assay [2] were 7.22 and 8.52, respectively.

Regarding `CN(C)C(=O)c1ccc(N2CCC(CC3CCN(C(=O)[C@](O)(c4cc(F)cc(Cl)c4)C(F)(F)F)CC3)CC2)cc1` [Example 2-139, 4-[4-({1-[(2R)-2-(3-chloro-5-fluorophenyl)-3,3,3-trifluoro-2-hydroxy-propanoyl]piperidin-4-yl}methyl)piperidin-1-yl]-N,N-dimethyl-benzamide], the Emax in assay [1] (setting [3]) came out at 36%; in assay [2] (setting [3]), 95%. For the same compound, the figures for the pEC50 in assay [1] and in assay [2] were 6.58 and 7.85, respectively.

Turning to `COc1cccc(C(O)(C(=O)N2CCC(CC3CCN(c4ccc(C(=O)N(C)C)c(Cl)c4)CC3)CC2)C(F)(F)F)c1F` (stereo not shown) [Example 2-41, 2-chloro-N,N-dimethyl-4-[4-({1-[3,3,3-trifluoro-2-(2-fluoro-3-methoxyphenyl)-2-hydroxy-propanoyl]piperidin-4-yl}methyl)piperidin-1-yl]benzamide], the figures for the Emax in assay [1] (setting [3]) and in assay [2] (setting [3]) were 10% and 63%, respectively. Further, the “LXR alpha IP (nM)” value in assay [1] is on record as “NO IP”. For the same compound, the pEC50 in assay [2] was 7.85.

As to `COc1cccc([C@@](O)(C(=O)N2CCC(CC3CCN(c4cnc(C(=O)N(C)C)c(C)c4)CC3)CC2)C(F)(F)F)c1` [Example 2-2, N,N,3-trimethyl-5-[4-({1-[(2R)-3,3,3-trifluoro-2-hydroxy-2-(3-methoxy-phenyl)propanoyl]piperidin-4-yl}methyl)piperidin-1-yl]pyridine-2-carboxamide], the Emax in assay [1] (setting [3]) is 5%; in assay [2] (setting [3]) it was 43%. For the same compound, the “LXR alpha IP (nM)” value in assay [1] is recorded as “NO IP”. In addition, the pEC50 in assay [2] was 6.81.

As to `CN(C)C(=O)c1ccc(N2CCC(CC3CCN(C(=O)[C@](O)(c4ccccc4)C4CC4)CC3)CC2)cc1Cl` [Example 2-105, 2-chloro-4-[4-({1-[(2R)-2-cyclopropyl-2-hydroxy-2-phenylacetyl]piperidin-4-yl}methyl)piperidin-1-yl]-N,N-dimethyl-benzamide], in assay [1], the “LXR alpha IP (nM)” value was “NO IP” and the Emax stood at 12%. In assay [2], the concentration giving a half-maximal response (EC50) worked out at 21 nM and the Emax stood at 48%.

For `CN(C)C(=O)c1ccc(N2CCC(CC3CCN(C(=O)[C@](O)(c4cc(Cl)cc(Cl)c4)C(F)F)CC3)CC2)cc1Cl` [Example 2-121, 2-chloro-4-[4-({1-[(2R)-2-(3,5-dichloro-phenyl)-3,3-difluoro-2-hydroxy-propanoyl]piperidin-4-yl}methyl)piperidin-1-yl]-N,N-dimethyl-benzamide], the Emax came out at 0% in assay [1] (setting [3]) and 51% in assay [2] (setting [3]). Further, the “LXR alpha IP (nM)” value in assay [1] is reported as “NO IP”. In addition, the pEC50 in assay [2] is 8.15.

On to `COCCN(C)C(=O)c1ccc(N2CCC(CC3CCN(C(=O)[C@](O)(c4ccccc4)C(F)(F)F)CC3)CC2)cc1Cl` [Example 4-9], for which the Emax in assay [1] (setting [3]) was determined as 31%; in assay [2] (setting [3]), 69%. The pEC50 in assay [1] was 6.71; in assay [2], 7.77.

Regarding `CN(C)C(=O)c1ccc(N2CCC(CCC3CCN(C(=O)[C@](O)(c4ccccc4)C(F)(F)F)CC3)CC2)cc1Cl` [Example 2-162, 2-chloro-N,N-dimethyl-4-[4-(2-{1-[(2R)-3,3,3-trifluoro-2-hydroxy-2-phenyl-propanoyl]piperidin-4-yl}ethyl)piperidin-1-yl]benzamide], the Emax in assay [1] (setting [3]) is 12%; in assay [2] (setting [3]), 38%. Moreover, in assay [1], the “LXR alpha IP (nM)” value was “NO IP”. Moreover, the pEC50 in assay [2] was 6.30.

On to `CN(C)C(=O)c1ccc(N2CCC(CC3CCN(C(=O)C(O)(c4ccccc4)c4ccsc4)CC3)CC2)nc1Cl` (stereo not shown) [Example 7-96, 2-chloro-6-[4-({1-[hydroxy(phenyl)thiophen-3-ylacetyl]piperidin-4-yl}methyl)piperidin-1-yl]-N,N-dimethylpyridine-3-carboxamide], for which, in assay [1], the “LXR alpha IP (nM)” value was “NO IP” and the Emax was 5%. In assay [2], the EC50 was 89 nM and the Emax amounted to 23%.

As to `CCc1cccc([C@@](O)(C(=O)N2CCC(CC3CCN(c4ccc(C(=O)NC)c(Cl)n4)CC3)CC2)C(F)(F)F)c1` [Example 7-148, 2-chloro-6-[4-({1-[(2R)-2-(3-ethylphenyl)-3,3,3-trifluoro-2-hydroxypropanoyl]piperidin-4-yl}methyl)piperidin-1-yl]-N-methylpyridine-3-carboxamide], the Emax is 24% in assay [1] (setting [3]) and 65% in assay [2] (setting [3]). Also, the values for the pEC50 in assay [1] and in assay [2] were 6.92 and 7.92, respectively.

Consider `CN(C)C(=O)c1ccc(N2CCC(CC3CCN(C(=O)[C@](O)(c4cccc(F)c4)C(F)F)CC3)CC2)cc1Cl` [Example 2-164, 2-chloro-4-[4-({1-[(2R)-3,3-difluoro-2-(3-fluorophenyl)-2-hydroxy-propanoyl]piperidin-4-yl}methyl)piperidin-1-yl]-N,N-dimethyl-benzamide], for which the results for the Emax in assay [1] (setting [3]) and in assay [2] (setting [3]) were 29% and 70%, respectively. For the same compound, the pEC50 in assay [1] is 6.53; in assay [2], 7.92.

As to `COc1cccc([C@@](O)(C(=O)N2CCC(OC3CCN(c4ccc(C(=O)N(C)C)c(Cl)n4)CC3)CC2)C(F)(F)F)c1` [Example 7-153, 2-chloro-N,N-dimethyl-6-[4-({1-[(2R)-3,3,3-trifluoro-2-hydroxy-2-(3-methoxyphenyl)propanoyl]piperidin-4-yl}oxy)piperidin-1-yl]pyridine-3-carboxamide], the results for the Emax in assay [1] (setting [3]) and in assay [2] (setting [3]) were 29% and 100%, respectively. The results for the pEC50 in assay [1] and in assay [2] were 6.05 and 7.60, respectively.

In the case of `COc1cccc([C@@](O)(C(=O)N2CCC(CC3CN(c4ccc(C(=O)N(C)C)c(OC)n4)C3)CC2)C(F)(F)F)c1` [Example 7-23, 2-methoxy-N,N-dimethyl-6-[3-({1-[(2R)-3,3,3-trifluoro-2-hydroxy-2-(3-methoxyphenyl)propanoyl]piperidin-4-yl}methyl)azetidin-1-yl]pyridine-3-carboxamide], the Emax turned out to be 0% in assay [1] (setting [3]) and 54% in assay [2] (setting [3]). For the same compound, the “LXR alpha IP (nM)” value in assay [1] was “NO IP”. Moreover, the pEC50 in assay [2] was 5.91.
